Assay [1] concerns Staphylococcus hominis DMS 20328. The assay is described as follows: MIC, microtitre dilution test (growth by optical density at 620 nm). It counts as cell-based. The note with it: Table 2, Staphylococcus hominis DMS 20328. As to the method:
(§1) Casein/soybean flour peptone bouillon for the preparation of pre-cultures of the test bacteria and yeast.
(§2) The test substances are predissolved in dimethyl sulfoxide (DMSO) and tested in a dilution series of 1:2.
(§3) Bacteria and yeast are cultured overnight in CASO bouillon, the mould is cultured overnight on mycological slant agar, and washed off with 10 ml of 0.85% sodium chloride solution (+0.1% TritonX-100).
(§4) All the test organisms are adjusted to an organism count of 1-5×10^6 CFU/ml using 0.85% sodium chloride solution.
(§5) The test substances are pre-pipetted into microtitre plates in an amount of 8 μl per well.
(§6) Pre-diluted organism suspensions are diluted 1:100 in CASO bouillon (bacteria and yeast) or Sabouraud 2% glucose bouillon (mould) and are added in an amount of 192 μl per well to the test substances.
(§7) The test batches are incubated for 48 hours at 37° C. (bacteria and yeast) or for 5 days at 28° C. (mould).
(§8) After incubation, the growth is evaluated by reference to the turbidity of the test batches (optical density) at 620 nm in a microplate reader.
(§9) The minimum inhibitory concentration (MIC value) is the concentration of substance at which (compared with the growth of the control) an appreciable inhibition of growth (≦20% growth) of the test organisms is ascertained.
(§10) One microtitre plate is used for each test organism and substance concentration. All the substances are tested in duplicate.

Assay [2] has as its system Escherichia coli NCTC 8196. Described as above. The note with it: Table 2, Escherichia coli. The assay is classed as cell-based. As to the method:
as §1, §2, §3, §4, §5, §6, §7, §8, §9, §10

In the case of `CCCCCCC1CCC2C3C(=O)NC(=O)C3c3[nH]c4ccccc4c3C12` (centres unmarked) [Compound 57], in assay [1], the “MIC [ppm] S. hominis” value is listed as above 120 ppm. For the same compound, the “MIC [ppm] E. coli” value in assay [2] is reported as above 120 ppm.
As for `O=C1NC(=O)C2C1c1[nH]c3ccccc3c1C1CCN(Cc3ccccc3)CC12` (centres unmarked) [Compound 60], the “MIC [ppm] S. hominis” value in assay [1] worked out at 120 ppm. Besides, in assay [2], the “MIC [ppm] E. coli” value is listed as above 120 ppm.
In the same order, the values of `CC(C)(C)C1CCC2c3c([nH]c4ccc(Br)cc34)C3C(=O)NC(=O)C3C2C1` (centres unmarked) [Compound 31] are 15 ppm and above 120 ppm.
In the same order, the values of `CCOC(=O)N1CCC2c3c([nH]c4ccccc34)C3C(=O)N(c4ccccc4)C(=O)C3C2C1` (centres unmarked) [Compound 52] are above 120 ppm and above 120 ppm.
For the compound `COc1ccc2[nH]c3c(c2c1)C1CC(C)(C)NC(C)(C)C1C1C(=O)N(C)C(=O)C31` (centres unmarked) [Compound 168], in assay [1], the “MIC [ppm] S. hominis” value is reported as above 120 ppm. For the same compound, the “MIC [ppm] E. coli” value in assay [2] is recorded as above 120 ppm.
For `CN1CCC2c3c([nH]c4ccccc34)C3C(=O)N(C)C(=O)C3C2C1` (centres unmarked) [Compound 123], in assay [1], the “MIC [ppm] S. hominis” value was above 120 ppm. Moreover, in assay [2], the “MIC [ppm] E. coli” value is 120 ppm.
`CCc1cccc2c3c([nH]c12)C1C(=O)NC(=O)C1C1CCCCCC31` (centres unmarked) [Compound 77]: the “MIC [ppm] S. hominis” value in assay [1] is 15 ppm. Moreover, the “MIC [ppm] E. coli” value in assay [2] is above 120 ppm.
In the same order, the values of `CCCN1CCC2c3c([nH]c4ccccc34)C3C(=O)N(CC)C(=O)C3C2C1` (centres unmarked) [Compound 41] are above 120 ppm and above 120 ppm.
The corresponding values for `COc1ccc2[nH]c3c(c2c1)C1CC(C)(C)CC(C)(C)C1C1C(=O)NC(=O)C31` (centres unmarked) [Compound 108] are above 120 ppm and above 120 ppm.
The corresponding values for `CCCN1CCC2c3c([nH]c4ccccc34)C3C(=O)N(c4ccccc4)C(=O)C3C2C1` (centres unmarked) [Compound 15] are above 120 ppm and above 120 ppm.
Take `CCCC1CCC2c3c([nH]c4ccc(OC)cc34)C3C(=O)N(C)C(=O)C3C2C1` (centres unmarked) [Compound 174]: in assay [1], the “MIC [ppm] S. hominis” value amounted to 30 ppm. Also, in assay [2], the “MIC [ppm] E. coli” value is above 120 ppm.
In the same order, the values of `CC(C)(C)C1CCC2c3c([nH]c4ccccc34)C3C(=O)NC(=O)C3C2C1` (centres unmarked) [Compound 26] are 15 ppm and above 120 ppm.
The corresponding values for `CC(C)(C)C1CCC2c3c([nH]c4ccccc34)C3C(=O)N(c4ccccc4)C(=O)C3C2C1` (centres unmarked) [Compound 13] are above 120 ppm and above 120 ppm.
In the same order, the values of `COc1ccc2[nH]c3c(c2c1)C1CCCCCCCCCCC1C1C(=O)N(C)C(=O)C31` (centres unmarked) [Compound 179] are above 120 ppm and above 120 ppm.
Turning to `CCN1C(=O)C2c3c(c4ccccc4n3C)C3CCC(C(C)(C)C)CC3C2C1=O` (centres unmarked) [Compound 49], in assay [1], the “MIC [ppm] S. hominis” value is given as above 120 ppm. In addition, the “MIC [ppm] E. coli” value in assay [2] was above 120 ppm.
For the compound `Cn1c2c(c3ccccc31)C1CCC(C(C)(C)C)CC1C1C(=O)NC(=O)C21` (centres unmarked) [Compound 36], the “MIC [ppm] S. hominis” value in assay [1] is above 120 ppm. Moreover, the “MIC [ppm] E. coli” value in assay [2] is listed as above 120 ppm.
For the compound `CN1C(=O)C2c3[nH]c4ccccc4c3C3CCN(Cc4ccccc4)CC3C2C1=O` (centres unmarked) [Compound 122], the “MIC [ppm] S. hominis” value in assay [1] is reported as above 120 ppm. For the same compound, the “MIC [ppm] E. coli” value in assay [2] is above 120 ppm.
On to `COc1ccc2[nH]c3c(c2c1)C1CC(C)CCC1C1C(=O)N(C)C(=O)C31` (centres unmarked) [Compound 172], for which the “MIC [ppm] S. hominis” value in assay [1] was above 120 ppm. The “MIC [ppm] E. coli” value in assay [2] is above 120 ppm.
Regarding `COc1ccc2[nH]c3c(c2c1)C1CCCC1C1C(=O)NC(=O)C31` (centres unmarked) [Compound 92], the “MIC [ppm] S. hominis” value in assay [1] was above 120 ppm. For the same compound, the “MIC [ppm] E. coli” value in assay [2] is listed as above 120 ppm.
In the case of `CCCN1CCC2c3c([nH]c4ccc(Br)cc34)C3C(=O)NC(=O)C3C2C1` (centres unmarked) [Compound 33], in assay [1], the “MIC [ppm] S. hominis” value is given as 30 ppm. Besides, the “MIC [ppm] E. coli” value in assay [2] was determined as 60 ppm.
As for `CCc1cccc2c3c([nH]c12)C1C(=O)NC(=O)C1C1C3CC(C)(C)CC1(C)C` (centres unmarked) [Compound 90], the “MIC [ppm] S. hominis” value in assay [1] is above 120 ppm. Besides, in assay [2], the “MIC [ppm] E. coli” value is given as above 120 ppm.
`CCCCCCC1CCC2C3C(=O)NC(=O)C3c3[nH]c4c(CC)cccc4c3C12` (centres unmarked) [Compound 83]: the “MIC [ppm] S. hominis” value in assay [1] is above 120 ppm. The “MIC [ppm] E. coli” value in assay [2] is above 120 ppm.
`COc1ccc2[nH]c3c(c2c1)C1CCN(Cc2ccccc2)CC1C1C(=O)NC(=O)C31` (centres unmarked) [Compound 104]: in assay [1], the “MIC [ppm] S. hominis” value is listed as above 120 ppm. Besides, in assay [2], the “MIC [ppm] E. coli” value is on record as above 120 ppm.
`CCc1cccc2c3c([nH]c12)C1C(=O)NC(=O)C1C1CCCCCCC31` (centres unmarked) [Compound 89]: the “MIC [ppm] S. hominis” value in assay [1] came to 7.5 ppm. For the same compound, in assay [2], the “MIC [ppm] E. coli” value is given as above 120 ppm.
As to `CCN1C(=O)C2c3[nH]c4ccccc4c3C3CCC(C(C)(C)C)CC3C2C1=O` (centres unmarked) [Compound 39], the “MIC [ppm] S. hominis” value in assay [1] is recorded as above 120 ppm. In assay [2], the “MIC [ppm] E. coli” value is above 120 ppm.
For `CN1C(=O)C2c3[nH]c4ccccc4c3C3CCCCCCC3C2C1=O` (centres unmarked) [Compound 125], the “MIC [ppm] S. hominis” value in assay [1] was above 120 ppm. Further, the “MIC [ppm] E. coli” value in assay [2] is above 120 ppm.
Take `CC1(C)CC2c3c([nH]c4ccccc34)C3C(=O)NC(=O)C3C2C(C)(C)N1` (centres unmarked) [Compound 28]: the “MIC [ppm] S. hominis” value in assay [1] was above 120 ppm. The “MIC [ppm] E. coli” value in assay [2] is given as above 120 ppm.
On to `COc1ccc2[nH]c3c(c2c1)C1CCN(Cc2ccccc2)CC1C1C(=O)N(C)C(=O)C31` (centres unmarked) [Compound 177], for which the “MIC [ppm] S. hominis” value in assay [1] was found to be 120 ppm. In addition, the “MIC [ppm] E. coli” value in assay [2] was 120 ppm.
Take `CCOC(=O)N1CCC2c3c([nH]c4ccccc34)C3C(=O)N(C)C(=O)C3C2C1` (centres unmarked) [Compound 115]: in assay [1], the “MIC [ppm] S. hominis” value is reported as 60 ppm. Further, the “MIC [ppm] E. coli” value in assay [2] is recorded as above 120 ppm.
In the same order, the values of `CCN1CCC2c3c([nH]c4ccc(OC)cc34)C3C(=O)NC(=O)C3C2C1` (centres unmarked) [Compound 103] are above 120 ppm and above 120 ppm.
The corresponding values for `CCc1cccc2c3c([nH]c12)C1C(=O)NC(=O)C1C1CCCCC31` (centres unmarked) [Compound 74] are 60 ppm and above 120 ppm.
The corresponding values for `CC1CCC2C(C1)c1c([nH]c3ccccc13)C1C(=O)NC(=O)C12` (centres unmarked) [Compound 56] are 30 ppm and above 120 ppm.
For `CCc1cccc2c3c([nH]c12)C1C(=O)N(C)C(=O)C1C1CCCCCCC31` (centres unmarked) [Compound 162], the “MIC [ppm] S. hominis” value in assay [1] is recorded as 120 ppm. In addition, in assay [2], the “MIC [ppm] E. coli” value is above 120 ppm.
The corresponding values for `COc1ccc2[nH]c3c(c2c1)C1CCCCCC1C1C(=O)N(C)C(=O)C31` (centres unmarked) [Compound 167] are above 120 ppm and above 120 ppm.
The corresponding values for `CCN1CCC2c3c([nH]c4ccccc34)C3C(=O)N(C)C(=O)C3C2C1` (centres unmarked) [Compound 121] are above 120 ppm and above 120 ppm.
The corresponding values for `O=C1NC(=O)C2C1c1[nH]c3ccc(Br)cc3c1C1CCCCCCC12` (centres unmarked) [Compound 73] are 60 ppm and above 120 ppm.
Turning to `COc1ccc2[nH]c3c(c2c1)C1CCCCCCC1C1C(=O)NC(=O)C31` (centres unmarked) [Compound 107], the “MIC [ppm] S. hominis” value in assay [1] is 120 ppm. Besides, in assay [2], the “MIC [ppm] E. coli” value is on record as above 120 ppm.
In the same order, the values of `CN1C(=O)C2c3[nH]c4ccc(Br)cc4c3C3CCC(C(C)(C)C)CC3C2C1=O` (centres unmarked) [Compound 129] are above 120 ppm and above 120 ppm.
`CC1CCC2C(C1)c1c([nH]c3ccccc13)C1C(=O)N(C)C(=O)C12` (centres unmarked) [Compound 117]: the MIC (usually the lowest concentration that inhibits growth of the organism) is above 120 µg/mL in assay [1] (DMS20328, read-out: MIC [ppm] S. hominis) and above 120 µg/mL in assay [2] (NCTC8196, read-out: MIC [ppm] E. coli).
Take `COc1ccc2[nH]c3c(c2c1)C1CCN(C)CC1C1C(=O)NC(=O)C31` (centres unmarked) [Compound 105]: the “MIC [ppm] S. hominis” value in assay [1] is reported as above 120 ppm. Moreover, the “MIC [ppm] E. coli” value in assay [2] was above 120 ppm.
Consider `CN1C(=O)C2c3[nH]c4ccccc4c3C3CC(C)(C)NC(C)(C)C3C2C1=O` (centres unmarked) [Compound 113], for which the “MIC [ppm] S. hominis” value in assay [1] is listed as above 120 ppm. The “MIC [ppm] E. coli” value in assay [2] was above 120 ppm.
Consider `COc1ccc2[nH]c3c(c2c1)C1CC(C)(C)CC(C)(C)C1C1C(=O)N(C)C(=O)C31` (centres unmarked) [Compound 181], for which, in assay [1], the “MIC [ppm] S. hominis” value is on record as above 120 ppm. The “MIC [ppm] E. coli” value in assay [2] is above 120 ppm.
As for `CC1(C)CC2c3c([nH]c4ccccc34)C3C(=O)NC(=O)C3C2C(C)(C)C1` (centres unmarked) [Compound 63], in assay [1], the “MIC [ppm] S. hominis” value was found to be 7.5 ppm. Also, in assay [2], the “MIC [ppm] E. coli” value is reported as above 120 ppm.
The corresponding values for `CCCC1CCC2c3c([nH]c4ccccc34)C3C(=O)N(C)C(=O)C3C2C1` (centres unmarked) [Compound 119] are above 120 ppm and above 120 ppm.
In the same order, the values of `CCCN1CCC2c3c([nH]c4ccc(OC)cc34)C3C(=O)N(C)C(=O)C3C2C1` (centres unmarked) [Compound 169] are above 120 ppm and above 120 ppm.
In the case of `CCC(C)(C)C1CCC2c3c([nH]c4ccccc34)C3C(=O)N(C)C(=O)C3C2C1` (centres unmarked) [Compound 120], the “MIC [ppm] S. hominis” value in assay [1] is 30 ppm. Also, the “MIC [ppm] E. coli” value in assay [2] is listed as above 120 ppm.

For the origin of these results see US6967215B2, “Tetrahydrocarbazoles, a process for the preparation of those compounds, and the use thereof” (Ciba Specialty Chemicals Corporation, priority 2000, dated 2005).
